Reference: patent US10828305B2 (SHANGHAI PHARMACEUTICALS HOLDING CO., LTD., priority 2016, dated 2020)

Legend:
BT-474 = assay: Proliferation inhibition assay in vitro, BT-474 (CellTiter-Glo); format: cell-based; conditions: Homo sapiens, 72 hours, read-out: IC50(nM) cell BT-474
Outline: (§1)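 Cells were seeded at 8.8×10^4 cells/mL for BT-474 or 6.6×10^4 cells/mL for N87 and grown overnight. Compound was added at 9 concentrations in duplicate for 72 h at 37 °C, 5% CO2. Viability was measured by CellTiter-Glo.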

EGFR kinase = EGFR kinase (Homo sapiens, UniProt P00533); assay: Enzymatic experiment on EGFR (HTRF kinEASE-TK); format: biochemical; conditions: ATP 1.65 μM; read-out: Kinase IC50 (nM) in vitro EGFR
Sequence of EGFR kinase (P00533 25-1210): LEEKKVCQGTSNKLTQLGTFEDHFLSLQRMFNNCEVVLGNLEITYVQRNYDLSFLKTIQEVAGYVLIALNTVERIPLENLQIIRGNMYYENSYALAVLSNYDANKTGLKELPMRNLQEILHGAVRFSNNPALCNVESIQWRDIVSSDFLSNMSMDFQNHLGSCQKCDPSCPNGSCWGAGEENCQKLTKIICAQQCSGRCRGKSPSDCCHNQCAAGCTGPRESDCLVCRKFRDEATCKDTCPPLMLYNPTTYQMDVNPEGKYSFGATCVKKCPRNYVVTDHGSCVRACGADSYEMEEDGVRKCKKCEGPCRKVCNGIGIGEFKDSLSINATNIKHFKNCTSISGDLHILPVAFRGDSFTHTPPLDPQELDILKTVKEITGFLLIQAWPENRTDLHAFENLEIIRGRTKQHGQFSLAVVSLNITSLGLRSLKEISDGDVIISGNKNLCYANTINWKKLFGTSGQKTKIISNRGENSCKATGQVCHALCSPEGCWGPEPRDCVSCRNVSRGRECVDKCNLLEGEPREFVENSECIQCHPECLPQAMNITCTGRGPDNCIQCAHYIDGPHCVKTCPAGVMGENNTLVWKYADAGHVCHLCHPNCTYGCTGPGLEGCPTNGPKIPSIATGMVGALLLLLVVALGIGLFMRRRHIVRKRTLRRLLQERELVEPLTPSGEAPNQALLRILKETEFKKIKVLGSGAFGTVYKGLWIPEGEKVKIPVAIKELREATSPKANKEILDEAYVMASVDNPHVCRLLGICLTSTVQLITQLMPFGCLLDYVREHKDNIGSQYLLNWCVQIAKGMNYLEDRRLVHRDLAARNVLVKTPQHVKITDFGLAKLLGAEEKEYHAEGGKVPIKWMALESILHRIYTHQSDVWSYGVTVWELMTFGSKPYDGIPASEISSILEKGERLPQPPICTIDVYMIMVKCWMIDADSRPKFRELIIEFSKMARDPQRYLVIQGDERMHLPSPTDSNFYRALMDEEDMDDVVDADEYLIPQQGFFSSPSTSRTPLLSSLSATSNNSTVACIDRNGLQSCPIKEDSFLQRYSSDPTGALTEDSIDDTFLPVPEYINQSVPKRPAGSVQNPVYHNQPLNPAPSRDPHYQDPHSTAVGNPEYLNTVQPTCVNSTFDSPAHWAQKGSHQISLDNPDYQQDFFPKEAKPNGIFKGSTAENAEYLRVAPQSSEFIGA
Outline: (§2)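 HTRF kinEASE-TK with biotinylated TK substrate in HEPES pH 7.0 buffer containing MnCl2, MgCl2 and DTT; ErbB2 at 0.06 ng/μl with 4 μM ATP, EGFR at 0.06 units/μl with 1.65 μM ATP, 30 min at room temperature after 5 min enzyme/substrate–compound preincubation. Ten-point 3-fold dilutions; Eu antibody/SA-XL665 detection, 665/620 ratio.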

ErbB2 kinase = ErbB2 kinase (Homo sapiens, UniProt P04626); assay: Enzymatic experiment on ErbB2 (HTRF kinEASE-TK); format: biochemical; conditions: ATP 4 μM; read-out: Kinase IC50 (nM) in vitro ErbB2
Sequence of ErbB2 kinase (P04626 23-1255): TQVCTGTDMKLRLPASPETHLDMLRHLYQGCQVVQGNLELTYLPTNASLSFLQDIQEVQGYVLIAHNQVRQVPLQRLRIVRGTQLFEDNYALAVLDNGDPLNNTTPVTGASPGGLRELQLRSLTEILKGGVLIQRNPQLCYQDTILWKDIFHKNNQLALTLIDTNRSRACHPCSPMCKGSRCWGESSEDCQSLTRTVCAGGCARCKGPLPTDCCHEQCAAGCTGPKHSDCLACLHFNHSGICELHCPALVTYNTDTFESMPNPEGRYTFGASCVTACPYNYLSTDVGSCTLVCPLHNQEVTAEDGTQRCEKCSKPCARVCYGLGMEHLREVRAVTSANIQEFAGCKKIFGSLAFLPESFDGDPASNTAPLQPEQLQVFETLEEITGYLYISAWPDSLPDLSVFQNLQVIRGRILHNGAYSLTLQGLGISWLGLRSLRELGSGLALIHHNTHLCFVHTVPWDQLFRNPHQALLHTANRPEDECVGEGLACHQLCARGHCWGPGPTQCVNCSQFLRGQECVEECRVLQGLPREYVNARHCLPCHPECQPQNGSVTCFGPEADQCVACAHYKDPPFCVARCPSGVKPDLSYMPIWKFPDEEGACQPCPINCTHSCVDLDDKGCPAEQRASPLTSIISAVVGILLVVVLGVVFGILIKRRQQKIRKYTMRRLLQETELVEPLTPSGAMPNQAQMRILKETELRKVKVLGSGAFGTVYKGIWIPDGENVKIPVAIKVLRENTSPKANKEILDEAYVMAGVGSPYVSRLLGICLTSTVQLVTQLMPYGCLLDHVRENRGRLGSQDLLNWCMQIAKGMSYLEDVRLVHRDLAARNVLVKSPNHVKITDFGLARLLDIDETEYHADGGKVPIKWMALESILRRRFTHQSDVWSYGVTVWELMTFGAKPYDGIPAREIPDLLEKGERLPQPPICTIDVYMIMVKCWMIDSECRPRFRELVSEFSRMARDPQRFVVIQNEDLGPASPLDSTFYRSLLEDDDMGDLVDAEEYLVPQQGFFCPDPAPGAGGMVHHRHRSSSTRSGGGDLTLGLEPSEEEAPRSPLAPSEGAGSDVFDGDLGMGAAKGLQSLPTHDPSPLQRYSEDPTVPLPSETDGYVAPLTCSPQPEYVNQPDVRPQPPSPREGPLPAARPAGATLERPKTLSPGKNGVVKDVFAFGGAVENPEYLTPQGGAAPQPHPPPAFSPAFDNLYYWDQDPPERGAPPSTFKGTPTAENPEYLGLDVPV
Outline: as §2

N87 = assay: Proliferation inhibition assay in vitro, N87 (CellTiter-Glo); format: cell-based; conditions: Homo sapiens; 72 hours; read-out: IC50(nM) cell N87
Outline: as §1

| IC50 (BT-474) [nM] | IC50 (EGFR kinase) [nM] | IC50 (ErbB2 kinase) [nM] | Compound | IC50 (N87) [nM] |
| --- | --- | --- | --- | --- |
| 7.1 | 2.2 | 1.1 | Cc1cc(Nc2ncnc3ccc(NC(=O)CCl)cc23)ccc1Oc1cc2nncn2cn1 [Embodiment 82, N-(4-((4-([1,2,4]triazolo[4,3-c]pyrimidin-7-yloxy)-3-methylphenyl)amino)quinazolin-6-yl)-2-chloroacetamide] | 5 |
| 72.7 | 36.4 | 2.3 | Cc1cc(Nc2ncnc3ccc(-n4cccc4)cc23)ccc1Oc1cc2nncn2cn1 [Embodiment 83, N-(4-([1,2,4]triazolo[4,3-c]pyrimidin-7-yloxy)-3-methylphenyl)-6-(1H-pyrrol-1-yl)-quinazolin-4-amine] | 104 |
| 21.8 | 89.4 | 3 | C=C(C)C(=O)Nc1ccc2ncnc(Nc3ccc(Oc4cc5nncn5cn4)c(C)c3)c2c1 [Embodiment 84, N-(4-((4-([1,2,4]triazolo[4,3-c]pyrimidin-7-yloxy)-3-methylphenyl)amino)quinazolin-6-yl)-methacrylamide] | 31.1 |
| 33.8 | 7.7 | 3.1 | Cc1cc(Nc2ncnc3ccc(-n4ccc(CNCCS(C)(=O)=O)c4)cc23)ccc1Oc1cc2nncn2cn1 [Embodiment 86, N-(4-([1,2,4]triazolo[4,3-c]pyrimidin-7-yloxy)-3-methylphenyl)-6-(3-(((2-(methylsulfonyl)ethyl)amino)methyl)-1H-pyrrol-1-yl)quinazolin-4-amine] | 160 |
| 15.3 | 6.5 | 1.9 | Cc1cc(Nc2ncnc3ccc(NC4=NC5(CCCC5)CO4)cc23)ccc1Oc1cc2nncn2cn1 [Embodiment 87] | 25.3 |
| 6.3 | 1.9 | 1.13 | C=CC(=O)N1CCC(Oc2cc3c(Nc4ccc(Oc5cc6nncn6cn5)c(F)c4)ncnc3cc2OC)CC1 [Embodiment 88, 1-(4-((4-((4-([1,2,4]triazolo[4,3-c]pyrimidin-7-yloxy)-3-fluorophenyl)amino)-7-methoxyquinazolin-6-yl)oxy)piperidin-1-yl)prop-2-en-1-one] | 5.2 |
| 185 | 494 | 11.1 | Cc1cc(Nc2ncnc3ccc(NC4=NCC(C)(C)O4)cc23)ccc1Oc1cc2nncn2cn1 [Embodiment 90, N^4-(4-([1,2,4]triazolo[4,3-c]pyrimidin-7-yloxy)-3-methylphenyl)-N^6-(5,5-dimethyl-4,5-dihydrooxazol-2-yl)quinazolin-4,6-diamine] | 271 |
| 38.8 | 26.9 | 2.76 | Cc1cc(Nc2ncnc3ccc(NC4=N[C@@H](C(C)C)CO4)cc23)ccc1Oc1cc2nncn2cn1 [Embodiment 91, (S)—N^4-(4-([1,2,4]triazolo[4,3-c]pyrimidin-7-yloxy)-3-methylphenyl)-N^6-(4-isopropyl-4,5-dihydrooxazol-2-yl)quinazolin-4,6-diamine] | 76.8 |
| 2.2 | 0.7 | 0.44 | C=CC(=O)N1CCC(Oc2cc3c(Nc4ccc(Oc5cc6nncn6cn5)c(Cl)c4)ncnc3cc2OC)CC1 [Embodiment 92, 1-(4-((4-((4-([1,2,4]triazolo[4,3-c]pyrimidin-7-yloxy)-3-chlorophenyl)amino)-7-methoxyquinazolin-6-yl)oxy)piperidin-1-yl)prop-2-en-1-one] | 3.4 |
| 4.8 | 3.16 | 2.99 | Cc1cc(Nc2ncnc3ccc(NC(=O)/C=C/[C@H]4CCCN4C)cc23)ccc1Oc1cc2nncn2cn1 [Embodiment 94, (R,E)-N-(4-((4-([1,2,4]triazolo[4,3-c]pyrimidin-7-yloxy)-3-methylphenyl)amino)quinazolin-6-yl)-3-(1-methylpyrrolidin-2-yl)acrylamide] | 4.7 |
| 55.9 | 3.79 | 3.43 | Cc1cc(Nc2ncnc3ccc(NC(=O)/C=C/[C@@H]4CCCN4)cc23)ccc1Oc1cc2nncn2cn1 [Embodiment 96, (S,E)-N-(4-((4-([1,2,4]triazolo[4,3-c]pyrimidin-7-yloxy)-3-methylphenyl)amino)quinazolin-6-yl)-3-(pyrrolidin-2-yl)acrylamide] | 93.5 |
| 6.4 | 11.4 | 4.84 | Cc1cc(Nc2ncnc3ccc(NC(=O)/C=C/[C@@H]4CCCN4C)cc23)ccc1Oc1cc2nncn2cn1 [Embodiment 97, (S,E)-N-(4-((4-([1,2,4]triazolo[4,3-c]pyrimidin-7-yloxy)-3-methylphenyl)amino)quinazolin-6-yl)-3-(1-methylpyrrolidin-2-yl)acrylamide] | 10 |
| 3 | 1.6 | 1.78 | CN1CCC[C@@H]1/C=C/C(=O)Nc1ccc2ncnc(Nc3ccc(Oc4cc5nncn5cn4)c(Cl)c3)c2c1 [Embodiment 98, (R,E)-N-(4-((4-([1,2,4]triazolo[4,3-c]pyrimidin-7-yloxy)-3-chlorophenyl)amino)quinazolin-6-yl)-3-(1-methylpyrrolidin-2-yl)acrylamide] | 2.5 |
| 22.9 | 26 | 1.2 | Cc1cc(Nc2ncnc3ccc(-c4ccc(CN(C)CCS(C)(=O)=O)o4)cc23)ccc1Oc1cc2nncn2cn1 [Embodiment 105] | 17.3 |
| 264 | 445 | 21.5 | Cc1cc(Nc2ncnc3ccc(NC(=S)NC(C)(C)CO)cc23)ccc1Oc1cc2nncn2cn1 [Embodiment 106, 1-(4-((4-([1,2,4]triazolo[4,3-c]pyrimidin-7-yloxy)-3-methylphenyl)amino)quinazolin-6-yl)-3-(1-hydroxy-2-methylpropan-2-yl)thiourea] | 933 |
| 58.6 | 75.9 | 5.91 | Cc1cc(Nc2ncnc3ccc(-c4cccc(NCCS(C)(=O)=O)c4)cc23)ccc1Oc1cc2nncn2cn1 [Embodiment 115] | 84 |
| 12.6 | 11.7 | 1.3 | Cc1cc(Nc2ncnc3ccc(-c4cccc(N5CCS(=O)(=O)CC5)c4)cc23)ccc1Oc1cc2nncn2cn1 [Embodiment 116, 4-(3-(4-((4-([1,2,4]triazolo[4,3-c]pyrimidin-7-yloxy)-3-methylphenyl)amino)quinazolin-6-yl)phenyl)thiomorpholin-1,1-dioxide] | 18.3 |
| 3.1 | 100 | 3.6 | C=CC(=O)N1CC=C(c2ccc3ncnc(Nc4ccc(Oc5cc6nncn6cn5)c(C)c4)c3c2)CC1 [Embodiment 117, 1-(4-(4-((4-([1,2,4]triazolo[4,3-c]pyrimidin-7-yloxy)-3-methylphenyl)amino)quinazolin-6-yl)-5,6-dihydropyridin-1(2H)-yl)prop-2-en-1-one] | 2.1 |
| 73.4 | 28.4 | 8.59 | Cc1cc(Nc2ncnc3ccc(-c4ccc(N)nn4)cc23)ccc1Oc1cc2nncn2cn1 [Embodiment 118, N-(4-([1,2,4]triazolo[4,3-c]pyrimidin-7-yloxy)-3-methylphenyl)-6-(6-aminopyridazin-3-yl)quinazolin-4-amine] | 389 |
| 5.85 | 7.41 | 1.31 | C=CC(=O)N1CCC=C(c2ccc3ncnc(Nc4ccc(Oc5cc6nncn6cn5)c(C)c4)c3c2)C1 [Embodiment 120, 1-(5-(4-((4-([1,2,4]triazolo[4,3-c]pyrimidin-7-yloxy)-3-methylphenyl)amino)quinazolin-6-yl)-3,6-dihydropyridin-1(2H)-yl)prop-2-en-1-one] | 2.68 |
| 37 | 87.2 | 2.7 | Cc1cc(Nc2ncnc3ccc(/C=C/CNC(=O)C4CC4)cc23)ccc1Oc1cc2nncn2cn1 [Embodiment 122, (E)-N-(3-(4-((4-([1,2,4]triazolo[4,3-c]pyrimidin-7-yloxy)-3-methylphenyl)amino)quinazolin-6-yl)allyl)cyclopropylcarboxamide] | 92 |
| 219 | 32.8 | 4.4 | Cc1cc(Nc2ncnc3ccc(-c4ccc(CNCCS(C)(=O)=O)n4C)cc23)ccc1Oc1cc2nncn2cn1 [Embodiment 123, N-(4-([1,2,4]triazolo[4,3-c]pyrimidin-7-yloxy)-3-methylphenyl)-6-(1-methyl-5-(((2-(methylsulfonyl)ethyl)amino)methyl)-1H-pyrrol-2-yl)quinazolin-4-amine] | 429 |
| 9.5 | 2.3 | 2.8 | C=CC(=O)Nc1ccc2ncnc(Nc3ccc(Oc4cc5nncn5cn4)c(C)c3)c2c1 [Embodiment 124, N-(4-((4-([1,2,4]triazolo[4,3-c]pyrimidin-7-yloxy)-3-methylphenyl)amino)quinazolin-6-yl) acrylamide] | 11.4 |
| 13.6 | 14.7 | 3.4 | C=C(F)C(=O)Nc1cc2c(Nc3ccc(Oc4cc5nncn5cn4)c(C)c3)ncnc2cc1F [Embodiment 125, N-(4-((4-([1,2,4]triazolo[4,3-c]pyrimidin-7-yloxy)-3-methylphenyl)amino)-7-fluoroquinolin-6-yl)-2-fluoroacryamide] | 6.8 |
